Measured values: PMC3940307 (ACS medicinal chemistry letters, 2013)
Entries after “also recorded” stand apart in the source; their conditions may differ.

Experiments:
NTR1 [1] = target: T1, NTR1 (Homo sapiens, UniProt P30989); test: NTR1 Ca2+ Flux assay; assay type: cell-based
NTR1 [2] = target: T1, NTR1; test: NTR1 HCS primary assay; assay type: cell-based; details: for loss in potency compared to 32: NTR1 HCS EC50 relative to compound 32
[3] = tested on: adrenergic receptors (α1a, α1B, α1D, α2A); test: Panlabs/Ricerca lead profiling panel; assay type: binding; details: at 10 μM, range across α1a
[4] = tested on: GPR55, APJ, k-opiod, CCR6, and CXCR6; test: Functional high content or β-arrestin based GPCR screens; assay type: cell-based; details: result in words
[5] = tested on: Fa2N-4 Immortalized Human Hepatocytes; test: Toxicity towards hepatocytes; assay type: cell-based; details: LC50 towards human hepatocytes versus NTR1 potency
[6] = NTR1 HCS EC50 relative to compound 5

T1 sequence (P30989 whole entry): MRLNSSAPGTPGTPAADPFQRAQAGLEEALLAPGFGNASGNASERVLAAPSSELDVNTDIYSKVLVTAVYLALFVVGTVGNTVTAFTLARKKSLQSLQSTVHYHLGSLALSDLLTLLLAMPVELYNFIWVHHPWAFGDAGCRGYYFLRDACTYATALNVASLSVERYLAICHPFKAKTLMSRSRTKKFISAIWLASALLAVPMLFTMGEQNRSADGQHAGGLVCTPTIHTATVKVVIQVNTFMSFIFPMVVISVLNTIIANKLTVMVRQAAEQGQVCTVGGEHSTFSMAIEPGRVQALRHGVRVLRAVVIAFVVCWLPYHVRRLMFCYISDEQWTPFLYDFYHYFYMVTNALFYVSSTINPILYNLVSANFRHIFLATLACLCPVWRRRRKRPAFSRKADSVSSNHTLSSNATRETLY

Structure (SMILES): COc1cccc(OC)c1-c1cc(C(=O)N[C@@H](CC(C)C)C(=O)O)nn1-c1ccnc2cc(Cl)ccc12 [Compound 2, reference compound]
- EC50 (NTR1 [1]; NTR1 Ca2+ flux assay): < 156 nM

Structure (SMILES): CCOc1cc2c(N3CCN(c4ccccc4[N+](=O)[O-])CC3)nc(-c3ccccc3)nc2cc1OC [Compound 19]
- loss of potency compared to 5 (NTR1 [2]; [6]): > 6 fold

Structure (SMILES): COc1cc2nc(C3CC3)nc(N3CCN(c4ccccc4OC)CC3)c2cc1OC [Compound 32, 2-cyclopropyl-6,7-dimethoxy-4-(4-(2-methoxyphenyl)-piperazin-1-yl)quinazoline]
- improvement in activity over 5 (NTR1 [2]; [6]): 3 fold
- binding [3]: 63-100%
- response in Ca2+ mobilization / flux assay (NTR1 [1]; result in words): no significant response; also recorded: no significant activity
- cross reactivity [4]: no cross reactivity
- window for toxicity [5]: > 15 fold

Structure (SMILES): COc1ccccc1N1CCN(c2nc(C3CCC3)nc3ccccc23)CC1 [Compound 39]
- loss of potency compared to 5 (NTR1 [2]; [6]): 4-6 fold

Structure (SMILES): COc1cc2nc(C3CC3)nc(N3CCN(c4ccccc4Cl)CC3)c2cc1OC [Compound 43]
- loss in potency compared to 32 (NTR1 [2]): 3-10 fold

Structure (SMILES): CCOc1ccccc1N1CCN(c2nc(C3CC3)nc3cc(OC)c(OC)cc23)CC1 [Compound 42]
- loss in potency compared to 32 (NTR1 [2]): 3-10 fold

Structure (SMILES): COc1cc2nc(C3CCC3)nc(N3CCN(c4ccccn4)CC3)c2cc1OC [Compound 18]
- loss of potency compared to 5 (NTR1 [2]; [6]): > 6 fold

Structure (SMILES): COc1ccccc1N1CCN(c2nc(C3CCC3)nc3cc4c(cc23)OCO4)CC1 [Compound 40]
- loss of potency compared to 5 (NTR1 [2]; [6]): over 6 fold

Structure (SMILES): COc1ccc2c(N3CCN(c4ccccc4OC)CC3)nc(C3CCC3)nc2c1 [Compound 38]
- loss of potency compared to 5 (NTR1 [2]; [6]): 4-6 fold
